This note sets out measurements from ChEMBL document CHEMBL5370564, “Discovery of novel hybrids of mTOR inhibitor and NO donor as potential anti-tumor therapeutics” (Bioorg Med Chem, 2023).

Calls of active or inactive are those of the source. No cut-off for these calls is given here.

In data set [1] the test system is HL-60. Description: Antiproliferative activity against human HL-60 cells assessed as inhibition of cell growth incubated for 70 hrs by CCK-8 assay. It counts as functional, cell-based. Particulars: HL-60, 70 h.
Another data set relates to MCF7. Briefly: Antiproliferative activity against human MCF7 cells assessed as inhibition of cell growth incubated for 70 hrs by CCK-8 assay. Particulars: MCF7, 70 h. It counts as functional, cell-based. (Tetrazolium assays rely on reduction of a dye to a coloured formazan, in cell work by metabolically active cells.)
Another data set has as its system HepG2. Briefly: Antiproliferative activity against human HepG2 cells assessed as inhibition of cell growth incubated for 70 hrs by CCK-8 assay. It counts as functional, cell-based. To be noted: HepG2, 70 h.
Data set [2] relates to HL-60. Description: Induction of NO release in human HL-60 cells at 100 uM incubated for 12 hrs by griess reagent based colorimetric assay. It counts as functional, cell-based. A general note: The Griess reaction detects nitrite, a stable product of nitric oxide.
Data set [3] has as its target Serine/threonine-protein kinase mTOR (Homo sapiens, UniProt P42345). Briefly: Inhibition of mTOR (unknown origin) using Ulight-4E-BP1 peptide as substrate incubated for 45 mins in presence of ATP by Lance Ultra assay.
A short description of data set [4]: Cytotoxicity against HUVEC assessed as inhibition of cell growth incubated for 70 hrs by CCK-8 assay. It counts as toxicity, cell-based. To be noted: human, HUVEC cells.
A further data set has as its system mTORC2 (Homo sapiens). Briefly: Inhibition of mTORC2 in human HL-60 cells assessed as reduction in Akt phosphorylation at S473 residue incubated for 24 hrs by Western blot assay. Particulars: dose 20-160 nM. For orientation: Immunoblotting shows a protein as a band on a membrane.
The next data set concerns mTORC1 (Homo sapiens). Description: Inhibition of mTORC1 in human HL-60 cells assessed as reduction in S6 phosphorylation at Ser235/236 residue incubated for 24 hrs by Western blot assay. Particulars: dose 20-160 nM.

One may read the IC50 as the concentration that gives 50% inhibition. With `Nc1nc2cc(-c3nn(CCCC(=O)OCCCCOc4no[n+]([O-])c4S(=O)(=O)c4ccccc4)c4ncnc(N)c34)ccc2o1`, the IC50 in the data set on HL-60 [1] was found to be 0.07 µM; with MCF7, 0.61 µM; in the data set on HepG2, 1.48 µM; in data set [3], 0.00671 µM. Moreover, in the data set on HL-60 [2], the result was Active. The IC50 at 70 h in data set [4] is over 10 µM.

`Nc1nc2cc(-c3nn(CCCC(=O)OCCCCO[N+](=O)[O-])c4ncnc(N)c34)ccc2o1`: the IC50 in data set [3] was 0.0129 µM.

`CC(COc1no[n+]([O-])c1S(=O)(=O)c1ccccc1)NC(=O)CCCn1nc(-c2ccc3oc(N)nc3c2)c2c(N)ncnc21` (stereo unspecified): the IC50 was 6.41 µM in the data set with HL-60 [1], over 10 µM in the data set with MCF7, over 10 µM with HepG2 and 0.00596 µM in data set [3]. Besides, the result in the data set with HL-60 [2] was Active. Besides, in data set [4], the IC50 at 70 h amounted to 9.59 µM.

Consider `Nc1nc2cc(-c3nn(CCCC(=O)OCc4cccc(OCc5c(-c6ccccc6)no[n+]5[O-])c4)c4ncnc(N)c34)ccc2o1`, for which the 50% inhibitory concentration (IC50) in data set [3] was 0.337 µM.

As for `Nc1nc2cc(-c3nn(CCCC(=O)OCCCCCCO[N+](=O)[O-])c4ncnc(N)c34)ccc2o1`, the IC50 in data set [3] was 0.0198 µM.

As for `Nc1nc2cc(-c3nn(CCCC(=O)OCc4ccccc4OCc4c(-c5ccccc5)no[n+]4[O-])c4ncnc(N)c34)ccc2o1`, the IC50 in data set [3] amounted to 0.0451 µM.

Take `Nc1nc2cc(-c3nn(CCCC(=O)NCCCOc4no[n+]([O-])c4S(=O)(=O)c4ccccc4)c4ncnc(N)c34)ccc2o1`: the IC50 was 3.5 µM in the data set with HL-60 [1], 5.18 µM in the data set on MCF7, 9.96 µM in the data set on HepG2 and 0.0042 µM in data set [3]. The outcome with HL-60 [2] was Active. Besides, the IC50 at 70 h in data set [4] was over 10 µM.

Regarding `Nc1nc2cc(-c3nn(CCCC(=O)OCCc4ccc(OCc5c(-c6ccccc6)no[n+]5[O-])cc4)c4ncnc(N)c34)ccc2o1`, the IC50 in data set [3] is over 1 µM.

`Nc1nc2cc(-c3nn(CCCC(=O)OCc4ccc(OCc5c(-c6ccccc6)no[n+]5[O-])cc4)c4ncnc(N)c34)ccc2o1`: in data set [3], the IC50 was over 1 µM.

For the compound `CC(C)n1nc(-c2ccc3oc(N)nc3c2)c2c(N)ncnc21` [SAPANISERTIB], the IC50 in the data set with HL-60 [1] was 0.16 µM; in the data set on MCF7 it was 1.23 µM; in the data set with HepG2, 1.73 µM. In addition, in the data set with HL-60 [2], the outcome was inactive. The 50% inhibitory concentration (IC50) at 70 h in data set [4] is over 10 µM.

As to `Nc1nc2cc(-c3nn(CCCC(=O)NCCOc4no[n+]([O-])c4S(=O)(=O)c4ccccc4)c4ncnc(N)c34)ccc2o1`, the IC50 was 2.05 µM with HL-60 [1], 6.11 µM in the data set on MCF7, over 10 µM with HepG2 and 0.0079 µM in data set [3]. For the same compound, in the data set on HL-60 [2], the result was Active. The IC50 at 70 h in data set [4] is over 10 µM.

For `Nc1nc2cc(-c3nn(CCCC(=O)OCCCCCO[N+](=O)[O-])c4ncnc(N)c34)ccc2o1`, the IC50 in data set [3] was found to be 0.0125 µM.

`Nc1nc2cc(-c3nn(CCCC(=O)OCCCOc4no[n+]([O-])c4S(=O)(=O)c4ccccc4)c4ncnc(N)c34)ccc2o1`: the IC50 was 0.09 µM in the data set on HL-60 [1], 2.41 µM in the data set on MCF7, 1.32 µM with HepG2 and 0.00639 µM in data set [3]. In addition, the result with HL-60 [2] was Active. In data set [4], the IC50 at 70 h is 9.37 µM.

In the case of `Nc1nc2cc(-c3nn(CCCC(=O)OCCOc4no[n+]([O-])c4S(=O)(=O)c4ccccc4)c4ncnc(N)c34)ccc2o1`, the IC50 in the data set with HL-60 [1] was determined as 0.08 µM; in the data set on MCF7, 2.7 µM; in the data set with HepG2, 1.05 µM; in data set [3], 0.00331 µM. Moreover, the outcome in the data set with HL-60 [2] was Active. For the same compound, in data set [4], the IC50 at 70 h is 8.94 µM.

For the compound `Nc1nc2cc(-c3nn(CCCC(=O)OCC#CCOc4no[n+]([O-])c4S(=O)(=O)c4ccccc4)c4ncnc(N)c34)ccc2o1`, the IC50 in the data set with HL-60 [1] came out at 0.02 µM; with MCF7, 0.88 µM; with HepG2, 0.24 µM; in data set [3], 0.00365 µM. In addition, the inhibition result with mTORC2 (Homo sapiens) and in the data set on mTORC1 (Homo sapiens) was “Dose-Dependent Effect” throughout. Further, the result in the data set on HL-60 [2] was Active. Also, the IC50 at 70 h in data set [4] was over 10 µM.

In the case of `Nc1nc2cc(-c3nn(CCCC(=O)OCCCCCOc4no[n+]([O-])c4S(=O)(=O)c4ccccc4)c4ncnc(N)c34)ccc2o1`, the IC50 in the data set with HL-60 [1] is 0.16 µM; in the data set with MCF7, 2.72 µM; with HepG2, 1.43 µM; in data set [3] it was 0.00952 µM. In addition, the result in the data set on HL-60 [2] was Active. In addition, the IC50 at 70 h in data set [4] is over 10 µM.

Turning to `Nc1nc2cc(-c3nn(CCCC(=O)OCc4c(-c5ccccc5)no[n+]4[O-])c4ncnc(N)c34)ccc2o1`, the IC50 in the data set on HL-60 [1] is 7.7 µM; in the data set with MCF7, over 10 µM; with HepG2, over 10 µM; in data set [3] it was 0.0133 µM. Moreover, the result in the data set on HL-60 [2] was Active. The IC50 at 70 h in data set [4] was over 10 µM.

Consider `Nc1nc2cc(-c3nn(CCCC(=O)OCCOCCOc4no[n+]([O-])c4S(=O)(=O)c4ccccc4)c4ncnc(N)c34)ccc2o1`, for which the IC50 in the data set with HL-60 [1] worked out at 0.52 µM; in the data set with MCF7, 1.39 µM; in the data set on HepG2, 1.43 µM; in data set [3], 0.00702 µM. Moreover, the result with HL-60 [2] was Active. Moreover, the IC50 at 70 h in data set [4] was over 10 µM.

In the case of `Nc1nc2cc(-c3nn(CCCC(=O)OCCO[N+](=O)[O-])c4ncnc(N)c34)ccc2o1`, the IC50 is over 10 µM in the data set with HL-60 [1], over 10 µM with MCF7, over 10 µM in the data set with HepG2 and 0.0095 µM in data set [3]. The IC50 at 70 h in data set [4] was over 10 µM.

Take `Nc1nc2cc(-c3nn(CCCC(=O)OCCCCCCOc4no[n+]([O-])c4S(=O)(=O)c4ccccc4)c4ncnc(N)c34)ccc2o1`: in data set [3], the IC50 was determined as 0.011 µM.

Regarding `Nc1nc2cc(-c3nn(CCCC(=O)OCCCO[N+](=O)[O-])c4ncnc(N)c34)ccc2o1`, the 50% inhibitory concentration (IC50) is 7.47 µM in the data set with HL-60 [1], over 10 µM with MCF7, over 10 µM in the data set with HepG2 and 0.00982 µM in data set [3]. Moreover, the result with HL-60 [2] was Active. Moreover, in data set [4], the IC50 at 70 h is over 10 µM.
